From patent publication US4751302A, “Indazole derivatives” (priority 1982, dated 1988) come the findings set out here.

One data set is described as follows: in vivo. The following applies: mouse, ip, intraperitoneal, hydrochloride, male ddy mice.
Data set [1] concerns Carrageenin edema in rat's paw. In words: Carrageenin Edema Test in Rat's Paw (anti-inflammatory activity, Table 1). In kind it is in vivo. The following applies: 100 mg/kg oral, hydrochloride, rat. As for the experimental part: An anti-inflammatory activity was measured by orally administering 100 mg/kg of a hydrochloride of the indazole derivative of this invention as set forth in Table 1 to an animal in accordance with the standard method of Carrageenin Edema Test in Rat's Paw described in C. A. Winter et al., Proc. Soc. Exp. Biol. Med., 111, 544 (1962).
(In general: The carrageenan paw model is a standard test of acute inflammation.)

In general, LD50 refers to the dose expected to kill half of the subjects tested. A low value points to a more toxic substance. By inhibition in vivo is commonly meant the change of the read-out against control, counted positive when it falls. Read a high inhibition in vivo as a strong effect. With `Oc1ccc2c(c1)c(NCCCN1CCC(O)CC1)nn2CCCN1CCOCC1` [(148), 1-(3-Morpholinopropyl)-3-[3-(4-hydroxypiperidino)propylamino]-5-hydroxyindazole], the LD50 in the data set “in vivo” stood at 245 mg/kg. In data set [1], this compound registered an inhibition in vivo at 100 mg/kg of 30%.

In turn, `Nc1nn(CCN2CCOCC2)c2ccccc12` [(151), 1-(2-Morpholinoethyl)-3-aminoindazole] had an LD50 in the data set “in vivo” of 290 mg/kg. The same compound had an inhibition in vivo at 100 mg/kg in data set [1] of 48%.

In the data set “in vivo”, `CCN(CC)CCCNc1n[nH]c2cc(O)ccc12` [(69), 3-(3-Diethylaminopropylamino)-6-hydroxyindazole] yielded a median lethal dose (LD50) of 151 mg/kg. Besides, testing at 100 mg/kg in data set [1] gave an inhibition in vivo of 51%.

Take `CC(CCn1nc(NCCCN2CCCCC2)c2cc(O)ccc21)N(C)C` (stereo not shown) [(139), 1-(3-Dimethylaminobutyl)-3-(3-piperidinopropylamino)-5-hydroxyindazole]: the LD50 in “in vivo” is 249 mg/kg. This compound came in with an inhibition in vivo at 100 mg/kg in data set [1] of 28%.

Regarding `CCN(CC)CCCNc1nn(CCCN2CCOCC2)c2ccc(O)cc12` [(145), 1-(3-Morpholinopropyl)-3-(3-diethylaminopropylamino)-5-hydroxyindazole], the LD50 in “in vivo” amounted to 211 mg/kg. The compound further yielded an inhibition in vivo at 100 mg/kg in data set [1] of 30%.

The compound `Clc1ccc2[nH]nc(NCCCN3CCCCC3)c2c1` [(55), 3-(3-Piperidinopropylamino)-5-chloroindazole] yielded an LD50 in “in vivo” of 133 mg/kg. The same compound registered an inhibition in vivo at 100 mg/kg in data set [1] of 47%.

The compound `CC(C)CC(CCNc1n[nH]c2ccc(Cl)cc12)N1CCCCC1` (stereo not shown) [(58), 3-(3-Piperidino-5-methylhexylamino)-5-chloroindazole] returned an LD50 in “in vivo” of 180 mg/kg. The compound further registered an inhibition in vivo at 100 mg/kg in data set [1] of 40%.

The compound `OC1CCN(CCCNc2n[nH]c3ccc(Cl)cc23)CC1` [(61), 3-[3-(4-Hydroxypiperidino)propylamino]-5-chloroindazole] displayed an LD50 in “in vivo” of 210 mg/kg. In data set [1], this compound had an inhibition in vivo at 100 mg/kg of 46%.

On to `Oc1ccc2[nH]nc(NCCCN3CCC(O)CC3)c2c1` [(83), 3-[3-(4-Hydroxypiperidino)propylamino]-5-hydroxyindazole], for which the median lethal dose (LD50) in the data set “in vivo” stood at 134 mg/kg. Also, the inhibition in vivo at 100 mg/kg in data set [1] was 34%.

On to `CCN(CC)CCCNc1nn(CCCN(CC)CC)c2ccc(OC)cc12` [(94), 1-(3-Diethylaminopropyl)-3-(3-diethylaminopropylamino)-5-methoxyindazole], for which the LD50 in “in vivo” was determined as 301 mg/kg. The compound also registered an inhibition in vivo at 100 mg/kg in data set [1] of 30%.

For the compound `CCN(CC)CCCNc1nn(CCCN(CC)CC)c2ccc(N)cc12` [(93), 1-(3-Diethylaminopropyl)-3-(3-diethylaminopropylamino)-5-aminoindazole], the 50% lethal dose (LD50) in “in vivo” is 191 mg/kg. The compound also yielded an inhibition in vivo at 100 mg/kg in data set [1] of 28%.

Turning to `Clc1ccc2c(c1)c(NCCCN1CCCCC1)nn2CCCN1CCCCC1` [(101), 1-(3-Piperidinopropyl)-3-(3-piperidinopropylamino)-5-chloroindazole], the 50% lethal dose (LD50) in the data set “in vivo” came out at 211 mg/kg. This compound also came in with an inhibition in vivo at 100 mg/kg in data set [1] of 29%.

With `CC(C)CC(CCn1nc(N)c2cc(O)ccc21)N1CCCCC1` (stereo not shown) [(36), 1-(3-Piperidino-5-methylhexyl)-3-amino-5-hydroxyindazole], the median lethal dose (LD50) in the data set “in vivo” amounted to 251 mg/kg. Moreover, 100 mg/kg produced 32% inhibition in vivo in data set [1].

In “in vivo”, `CN1CCN(CCCNc2n[nH]c3ccc(O)cc23)CC1` [(86), 3-[3-(4-Methylpiperadino)propylamino]-5-hydroxyindazole] gave a median lethal dose (LD50) of 123 mg/kg. The compound also gave an inhibition in vivo at 100 mg/kg in data set [1] of 23%.

On to `CCN(CC)CCCNc1n[nH]c2ccc(O)cc12` [(68), 3-(3-Diethylaminopropylamino)-5-hydroxyindazole], for which the LD50 in “in vivo” was determined as 352 mg/kg. In data set [1], this compound yielded an inhibition in vivo at 100 mg/kg of 52%.

`Nc1nn(CCCN2CCCCCC2)c2ccc(O)cc12` [(41), 1-(3-Homopiperidinopropyl)-3-amino-5-hydroxyindazole] returned an LD50 in “in vivo” of 340 mg/kg. The same compound displayed an inhibition in vivo at 100 mg/kg in data set [1] of 36%.

The compound `CC(CCn1nc(N)c2ccccc21)N1CCOCC1` (stereo not shown) [(150), 1-(3-Morpholinobutyl)-3-aminoindazole] displayed an LD50 in “in vivo” of 270 mg/kg. In data set [1], the inhibition in vivo at 100 mg/kg stood at 39%.
